Experimental data taken from US20230381142A1, “ANTILEISHMANIAL COMPOUNDS, COMPOSITIONS AND USE THEREOF” (TRUSTEES OF BOSTON UNIVERSITY, priority 2022, published 2023).
Values after ≈ are worked out from the molar mass of the structure shown. Read-outs that look alike come from different tables or passages of the source.

Columns and labels:
[1] = test system: L. donovani intracellular amastigotes in B10R cells; assay: UCSD L. donovani infection assay (Assay Conditions D); type: cell-based; details: B10R cells; for L. donovani amastigotes EC75 (B10R cells): footnote d; for EC50: Leishmania donovani, values marked d, read-out: L. donovani amastigotes EC50 (B10R cells)
Summary of the method: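 Compounds, either single-point at 10 μM or 10-point 2-fold series (3 technical, 2 biological replicates), were incubated 72 h at 37° C. with B10R host cells co-seeded with day-7 stationary L. donovani promastigotes (20:1). DAPI-stained nuclei imaging yielded intracellular parasite EC50 and host-cell CC50.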

[2] = test system: host THP-1 macrophages; assay: GSK inMac assay, host cell toxicity readout (LD MAC); type: cell-based, human; details: for THP-1 Host Cell CC50: host THP-1 cells; for EC50: Homo sapiens, THP-1, cytotoxicity against host THP-1 macrophages
Summary of the method: (§1)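 MAC EC50 reflects THP-1 host cell counts, measured within GSK's inMac L. donovani infection assay that also scores intracellular amastigotes and infected-cell percentage.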

[3] = as above; type: cell-based, human; details: human
Summary of the method: as §1

[4] = test system: L. donovani intracellular amastigotes infecting THP-1 macrophages; assay: GSK intramacrophage L. donovani assay (LD AMMAC, inMac; Assay Conditions C); type: cell-based; details: Leishmania donovani
Summary of the method: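 EC50 values come from counting amastigotes per infected THP-1 macrophage (AMMAC). Parallel read-outs give percentage of infected cells per well (INFCELL) and a macrophage-number toxicity EC50 (MAC).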

[5] = Property forecast index (PFI = ChromLogD7.4 + aromatic rings); type: physicochemical
Protocol: At the outset of the project, compound 1 was evaluated against GSK's established criteria for antileishmanial compound advancement (Table 2). Some of these assessments were performed on racemic 1, while chiral separation was also pursued of the 1 racemate to determine the active enantiomer. […] Based on this promising profile, it progressed into medicinal chemistry optimization to better understand structure-activity relationships (SAR) toward improved potency, as well as structure-property relationships (SPR) with an eye toward reducing PFI and plasma protein binding.

[6] = test system: HepG2 cells; assay: HepG2 cytotoxicity; type: cell-based; details: Homo sapiens; toxicity against HepG2 cells
Protocol: Given the literature precedents described above and the apparent narrow tolerance for R^3 substitutions observed in the primary screen compounds, a thorough and methodical assessment was undertaken of tolerated groups at the three points of diversity (R^1/R^2/R^3) for the core. At this stage of the project, all analogues were assessed using a battery of assays performed in-house at GlaxoSmithKline. For antileishmanial activity, GSK's inMac assay was utilized. This assay provides two readouts of compound potency: average number of intracellular amastigotes per infected cell (AMMAC) EC50, percentage of infected cells per well (INFCELL) EC50, as well as a toxicity output derived from the number of host cells (MAC EC50). In addition, compounds were assessed for toxicity against HepG2 cells (HEPG2 EC50). Here, AMMAC EC50 values were focused on for relative potency assessments. […] It should be noted that for all compounds assessed in this project, the measured toxicity against THP-1 macrophages either equaled or exceeded that of HepG2 hepatocytes, therefore the MAC SI is used here as the more conservative estimate of therapeutic index.

[7] = Artificial membrane permeability (AMP); type: in vitro ADME; details: PAMPA, pH 7.4
Protocol: Passive permeability of compounds via rate of permeation through an artificial phospholipid membrane at pH 7.4 was measured in a high-throughput format, in duplicate. A solution of 1.8% phosphatidylcholine in 1% decane was added to a 96-well Millicell filter plate along with 250 μL of 50 mM phosphate buffer, pH 7.4 on the donor side, and 100 μL of the same buffer solution on the receiver side. The assay plate was shaken for 45 minutes before adding test compounds. Test compounds were then added to the filter plate and then incubated at room temperature with shaking for three hours. The donor and receiver solutions were next transferred to a 384-well plate for analysis by LC/MS.

[8] = Kinetic aqueous solubility by CLND; type: physicochemical; details: kinetic from dmso stock, high-throughput CLND
Protocol: Solubility of compounds using ChemiLuminescent Nitrogen Detection (CLND) was measured as described. Solubility of compounds using Charged Aerosol Detection (CAD) was measured as described. Solubility of solid compounds in Fasted Simulated Intestinal Fluid (FaSSIF) was measured as described.

[9] = target: human serum albumin (Homo sapiens, UniProt P02768); assay: Human serum albumin (HSA) binding, chromatographic; type: in vitro ADME
Chain of human serum albumin (P02768 25-609): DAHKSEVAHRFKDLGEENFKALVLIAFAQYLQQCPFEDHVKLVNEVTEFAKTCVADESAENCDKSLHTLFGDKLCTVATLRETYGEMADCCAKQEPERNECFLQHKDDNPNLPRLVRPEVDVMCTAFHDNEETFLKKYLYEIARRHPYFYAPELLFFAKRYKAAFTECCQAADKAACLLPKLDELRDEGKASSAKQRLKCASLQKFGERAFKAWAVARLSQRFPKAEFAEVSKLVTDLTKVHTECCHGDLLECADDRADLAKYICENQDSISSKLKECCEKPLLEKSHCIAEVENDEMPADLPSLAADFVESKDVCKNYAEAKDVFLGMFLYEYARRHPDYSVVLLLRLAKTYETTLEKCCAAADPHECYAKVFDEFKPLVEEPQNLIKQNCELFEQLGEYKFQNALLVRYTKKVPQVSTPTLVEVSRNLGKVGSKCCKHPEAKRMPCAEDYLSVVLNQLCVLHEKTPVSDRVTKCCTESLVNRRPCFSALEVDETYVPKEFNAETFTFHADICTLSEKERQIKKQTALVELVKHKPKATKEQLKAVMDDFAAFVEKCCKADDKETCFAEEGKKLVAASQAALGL
Protocol: The percentage of compound bound to human serum albumin was measured using a chromatographic method as described. Briefly, each compound was assayed on an immobilized HSA column and gradient retention times measured, with chromatographic peak detection by UV. Each retention time was then converted to a % HSA bound value using a calibration set of compounds with a known % HSA binding.

[10] = footnote c, read-out: THP-1 Host Cell CC50
[11] = THP-1 cells, values marked c, read-out: L. donovani amastigotes EC50 (THP-1 cells)
[12] = values marked c: THP-1 cells, read-out: L. donovani amastigotes EC50 (μM, THP-1 or B10R cells)
[13] = growth inhibition of L. donovani intracellular amastigotes infecting THP-1 macrophages, read-out: LD AMMAC EC50

Structure (SMILES) | PFI [5] | EC50 [6] [µM] | Papp at 3 h [7] [×10⁻⁶ cm/s] | solubility [8] [µM] | HSA Binding [9] [%] | EC50 [2] [µM] | EC50 [4, 13] [µM] | other results
CCn1cc(N2C(=O)c3[nH]nc(CC(C)C)c3C2c2ccccc2C(F)(F)F)cn1 (centres unmarked) [BUCMD00671] |  |  |  |  |  |  |  | L. donovani amastigotes EC75 (μM, B10R cells) [1]: >5 µM; THP-1 Host Cell CC50 [2]: >10 µM
CC(C)Cc1n[nH]c2c1C(c1ccc(F)c(F)c1)N(c1cncc(F)c1)C2=O (centres unmarked) [BUCMD00701] |  |  |  |  |  |  |  | L. donovani amastigotes EC75 (μM, B10R cells) [1]: >5 µM; THP-1 Host Cell CC50 [2]: >10 µM
CC(C)Cc1n[nH]c2c1C(c1ccc(F)cc1)N(c1ccc3ncnn3c1)C2=O (centres unmarked) [CMLD010888] |  |  |  |  |  |  |  | L. donovani amastigotes EC75 (B10R cells) [1]: 2.3 µM; CC50 [3, 10]: > 50 µM; EC50 [4, 11]: 5 µM
C#CCn1nc2c(c1CC(C)C)C(c1ccc(F)cc1)N(c1ccc(OC)cc1)C2=O (centres unmarked) [CMLD010986] |  |  |  |  |  |  |  | L. donovani amastigotes EC75 (μM, B10R cells) [1]: >10 µM; CC50 ([3]; host THP-1 cells): 25.1 µM; EC50 [4, 12]: 3.2 µM
C#CCn1nc(CC(C)C)c2c1C(=O)N(c1ccc(OC)cc1)C2c1ccc(F)cc1 (centres unmarked) [CMLD010987] |  |  |  |  |  |  |  | L. donovani amastigotes EC75 (B10R cells) [1]: 4.0 µM; CC50 [3, 10]: 20 µM; EC50 [4, 11]: 1.6 µM
CC(C)Cc1n[nH]c2c1C(c1ccc(F)cc1)N(CCN1CCCC1)C2=O (centres unmarked) [CMLD011072] |  |  |  |  |  |  |  | L. donovani amastigotes EC75 (B10R cells) [1]: >10 µM; CC50 [3, 10]: > 50 µM; EC50 [4, 11]: 15.9 µM
CC(C)Cc1n[nH]c2c1C(c1ccsc1)N(c1ccc3c(c1)OCO3)C2=O (centres unmarked) [CMLD011136] |  |  |  |  |  |  |  | L. donovani amastigotes EC75 (μM, B10R cells) [1]: 3.6 µM; CC50 ([3]; host THP-1 cells): ≥ 50.1 µM; EC50 [4, 12]: 5 µM
COc1ccccc1C1c2c(CC(C)C)n[nH]c2C(=O)N1c1ccc2c(c1)OCO2 (centres unmarked) [CMLD011546] |  |  |  |  |  |  |  | L. donovani amastigotes EC75 (B10R cells) [1]: 0.3 µM; EC50 [1]: 0.3 µM; CC50 [3, 10]: > 20 µM
COc1ncc(N2C(=O)c3[nH]nc(CC(C)C)c3C2c2ccc(F)cc2)cc1C (centres unmarked) [CMLD011555] |  |  |  |  |  |  |  | L. donovani amastigotes EC75 (μM, B10R cells) [1]: 1.7 µM; CC50 ([3]; host THP-1 cells): 20 µM; EC50 [4, 12]: 10 µM
CC(C)Cc1n[nH]c2c1C(c1ccc(F)cc1)N(c1ccc(N3CCCC3=O)cc1)C2=O (centres unmarked) [CMLD011560] |  |  |  |  |  |  |  | L. donovani amastigotes EC75 (μM, B10R cells) [1]: 1.0 µM; CC50 ([3]; host THP-1 cells): 20 µM; EC50 [4, 12]: 4 µM
COc1ccc(N2C(=O)c3[nH]nc(CC(C)C)c3C2c2ccccc2Br)cn1 (centres unmarked) [CMLD012218] |  |  |  |  |  |  |  | L. donovani amastigotes EC75 (B10R cells) [1]: 0.4 µM; EC50 [1]: 1 µM; CC50 [3, 10]: > 20 µM
COc1ccc(N2C(=O)c3[nH]nc(CCC(C)C)c3C2c2ccc(F)cc2)cc1 (centres unmarked) [Compound 9] | 9.1 | 79.4 | 10 | 15 (≈ 5.9 µg/mL) | 98.0 | 31.6 | 2.5 | 
COc1ccc(N2C(=O)c3[nH]nc(CC(C)(C)C)c3C2c2ccc(F)cc2)cc1 (centres unmarked) [Compound 10] | 9.0 | 39.8 | 17 | 36 (≈ 14.2 µg/mL) | 97.4 | 25.1 | 2.5 | 
CCCCc1n[nH]c2c1C(c1ccc(F)cc1)N(c1ccc(OC)cc1)C2=O (centres unmarked) [Compound 11] | 8.4 |  |  |  |  | 2.5 | 0.1 | EC50 ([4]; THP-1, read-out: potency (antileishmanial, text to Table 3)): ~0.3 µM
C=CCCc1n[nH]c2c1C(c1ccc(F)cc1)N(c1ccc(OC)cc1)C2=O (centres unmarked) [Compound 12] | 8.1 | 50.1 | 41 | 135 (≈ 51 µg/mL) | 97.5 | 3.2 | 1.6 | 
C=C(C)CCc1n[nH]c2c1C(c1ccc(F)cc1)N(c1ccc(OC)cc1)C2=O (centres unmarked) [Compound 13] | 8.5 | 50.1 | 37 | 52 (≈ 20.4 µg/mL) | 96.8 | 1.6 | 0.5 | 
C=C(C)CCCc1n[nH]c2c1C(c1ccc(F)cc1)N(c1ccc(OC)cc1)C2=O (centres unmarked) [Compound 14] | 8.9 | 50.1 | 27 | 17 (≈ 6.89 µg/mL) | 97.9 | 20 | 6.3 | 
COc1ccc(N2C(=O)c3[nH]nc(CCc4ccccc4)c3C2c2ccc(F)cc2)cc1 (centres unmarked) [Compound 15] | 9.7 | 50.1 | 36 | 6 (≈ 2.56 µg/mL) | 98.0 | 25.1 | 6.3 | 
COc1ccc(N2C(=O)c3[nH]nc(-c4ccc5c(c4)CCC5)c3C2c2ccc(F)cc2)cc1 (centres unmarked) [Compound 16] | 10.6 | 25.1 | 13 | 17 (≈ 7.47 µg/mL) | 97.8 | 7.9 | 5 | 
COc1ccc(N2C(=O)c3[nH]nc(-c4ccc(CC(C)C)cc4)c3C2c2ccc(F)cc2)cc1 (centres unmarked) [Compound 17] | 11.4 | 15.8 | 34 | < 1 | 98.0 | 7.9 | 4 | 
CC(C)Cc1n[nH]c2c1C(c1ccc(F)cc1)N(c1ccc(O)cc1)C2=O (centres unmarked) [Compound 18] | 7.1 | > 100 | 28.5 |  | 95.6 | 39.8 | 5 | solubility ([8]; aqueous (not further specified)): ≥ 430 µM
CC(C)Cc1n[nH]c2c1C(c1ccc(F)cc1)N(c1ccc(-n3ccnc3)cc1)C2=O (centres unmarked) [Compound 28] | 8.1 | > 100 | < 0.3 |  | 96.3 | > 50 | 2.5 | 
